The target of assay [1] is T1, CarE CCE001a (Helicoverpa armigera, UniProt D9IV61).
T1 construct: no purification described
T1 sequence (D9IV61 17-555): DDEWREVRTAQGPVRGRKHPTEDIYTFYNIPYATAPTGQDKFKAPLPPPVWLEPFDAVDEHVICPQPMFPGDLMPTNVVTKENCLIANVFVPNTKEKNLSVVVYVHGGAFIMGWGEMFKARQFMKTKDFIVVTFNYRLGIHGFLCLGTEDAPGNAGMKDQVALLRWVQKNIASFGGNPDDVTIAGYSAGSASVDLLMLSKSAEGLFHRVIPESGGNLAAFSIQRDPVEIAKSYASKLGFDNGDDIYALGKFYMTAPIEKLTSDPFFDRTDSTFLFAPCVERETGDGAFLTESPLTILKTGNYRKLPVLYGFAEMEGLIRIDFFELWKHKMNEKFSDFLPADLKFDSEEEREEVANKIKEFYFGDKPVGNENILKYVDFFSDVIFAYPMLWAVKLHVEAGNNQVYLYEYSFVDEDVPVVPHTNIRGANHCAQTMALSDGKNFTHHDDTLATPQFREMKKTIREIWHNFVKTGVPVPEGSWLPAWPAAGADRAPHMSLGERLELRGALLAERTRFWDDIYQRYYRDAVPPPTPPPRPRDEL
Description: free gossypol depletion by HPLC; products by UPLC-QTOF/MS. In kind it is cell-based. To be noted: PBS, NADPH-Na4 added, 37 °C, 1.5 h, dark; recombinant protein from P. pastoris expression, purification not described.

The target in assay [2] is T1, CarE CCE001a. The assay is described as follows: esterase activity, absorbance at […] nm. In kind it is cell-based. To be noted: 37 °C; recombinant protein from P. pastoris expression, purification not described.

The record followed here is article PMC9788223, “Biodegradation of Free Gossypol by Helicoverpa armigera Carboxylesterase Expressed in Pichia pastoris” (Toxins, 2022).

SMILES strings stand for the structures.

Consider `Cc1cc2c(C(C)C)c(O)c(O)c(C=O)c2c(O)c1-c1c(C)cc2c(C(C)C)c(O)c(O)c(C=O)c2c1O` [Gossypol], for which the “free gossypol depletion by HPLC; products by UPLC-QTOF/MS” value in assay [1] was “Under the influence of recombinant CarE, TG and FG levels decreased rapidly in the experimental group”. Turning to `CC(=O)Oc1cccc2ccccc12` [alpha-naphthyl acetate], the “esterase activity, absorbance at 450 nm” value in assay [2] is given as “We also evaluated the enzyme activity of the recombinant CCE001a protein with the model substrate”.
